Laboratory results reported in patent US12329747B2, “Use of lipophilic beta-lactam antibiotics and carboxylate esters for the treatment of bacterial infections within citrus and other plant species” (priority 2019, dated 2025).
Where a name gives a salt, the structure may show the parent alone.

Tests used:
[1] = test system: Murcott mandarin clippings; test: Foliar application to citrus clippings, negative ESI mass spectrum of reservoir water after 24 hours; conditions: 25 μmoles in 1:1 neem oil, 24 hour incubation; for penicillin G/V or metabolite peaks detected in reservoir water: negative ESI mass spectrum
HLB = conditions: cited from earlier work; for effect on HLB infected trees: spraying or common treatment, background statement
Candidatus Liberibacter = conditions: background statement, cited from earlier work; for effectiveness against the pathogenic bacteria: grafting method
citrus leaves = conditions: external application, background statement; cited from earlier work
[2] = test system: fire blight (Erwinia amylovera); conditions: background statement; cited from earlier work

CCCCCCCCCC(=O)OCOC(=O)[C@@H]1N2C(=O)[C@@H](NC(=O)Cc3ccccc3)[C@H]2SC1(C)C [product compound 5, (Decanoyloxy)methyl (2S,5R,6R)-3,3-dimethyl-7-oxo-6-(2-phenylacetamido)-4-thia-1-azabicyclo[3.2.0]heptane-2-carboxylate]
hydrolysis of the ester into the active antibiotic by citrus tissue [1]: hydrolyzed into the active antibiotic
penetration of waxy cuticle layer and epidermis to access the phloem [1]: affectively penetrate through the waxy cuticle layer and through the epidermis to access the phloem
penicillin G/V or metabolite peaks detected in reservoir water [1]: base peaks in the mass spectrum corresponded to the active antibiotics

CC1(C)S[C@@H]2[C@H](NC(=O)Cc3ccccc3)C(=O)N2[C@H]1C(=O)OCc1ccccc1 [product compound 3, Benzyl(2S,5R,6R)-3,3-dimethyl-7-oxo-6-(2-phenylacetamido)-4-thia-1-azabicyclo[3.2.0]heptane-2-carboxylate]
penetration of waxy cuticle layer and epidermis to access the phloem [1]: substantially reduce permeability
penicillin G/V or metabolite peaks detected in reservoir water [1]: no recognizable metabolite peaks were detected

CC(C)(C)C(=O)OCOC(=O)[C@@H]1N2C(=O)[C@@H](NC(=O)COc3ccccc3)[C@H]2SC1(C)C [product compound 8, (Pivaloyloxy)methyl (2S,5R,6R)-3,3-dimethyl-7-oxo-6-(2-phenoxyacetamido)-4-thia-1-azabicyclo[3.2.0]heptane-2-carboxylate]
hydrolysis of the ester into the active antibiotic by citrus tissue [1]: hydrolyzed into the active antibiotic
penetration of waxy cuticle layer and epidermis to access the phloem [1]: affectively penetrate through the waxy cuticle layer and through the epidermis to access the phloem
penicillin G/V or metabolite peaks detected in reservoir water [1]: base peaks in the mass spectrum corresponded to the active antibiotics

CCCCCCCCCC(=O)OCOC(=O)[C@@H]1N2C(=O)[C@@H](NC(=O)COc3ccccc3)[C@H]2SC1(C)C [product compound 6, (Decanoyloxy)methyl(2S,5R,6R)-3,3-dimethyl-7-oxo-6-(2-phenoxyacetamido)-4-thia-1-azabicyclo[3.2.0]heptane-2-carboxylate]
hydrolysis of the ester into the active antibiotic by citrus tissue [1]: hydrolyzed into the active antibiotic
penetration of waxy cuticle layer and epidermis to access the phloem [1]: affectively penetrate through the waxy cuticle layer and through the epidermis to access the phloem
penicillin G/V or metabolite peaks detected in reservoir water [1]: base peaks in the mass spectrum corresponded to the active antibiotics

COC(=O)[C@@H]1N2C(=O)[C@@H](NC(=O)COc3ccccc3)[C@H]2SC1(C)C [product compound 2, Methyl(2S,5R,6R)-3,3-dimethyl-7-oxo-6-(2-phenoxyacetamido)-4-thia-1-azabicyclo[3.2.0]heptane-2-carboxylate]
hydrolysis of the ester into the active antibiotic by citrus tissue [1]: not being successfully metabolized to the active antibiotic
penetration of waxy cuticle layer and epidermis to access the phloem [1]: affectively penetrate through the waxy cuticle layer and through the epidermis to access the phloem

CC1(C)S[C@@H]2[C@H](NC(=O)COc3ccccc3)C(=O)N2[C@H]1C(=O)OCc1ccccc1 [product compound 4, Benzyl(2S,5R,6R)-3,3-dimethyl-7-oxo-6-(2-phenoxyacetamido)-4-thia-1-azabicyclo[3.2.0]heptane-2-carboxylate]
penetration of waxy cuticle layer and epidermis to access the phloem [1]: substantially reduce permeability
penicillin G/V or metabolite peaks detected in reservoir water [1]: no recognizable metabolite peaks were detected

[Cu] [Copper]
effect on HLB infected trees (HLB): not been found to be effective

benzylpenicillin (penicillin G)
phytotoxicity (Candidatus Liberibacter): very little phytotoxicity
effectiveness against the pathogenic bacteria (Candidatus Liberibacter): extremely effective
effect on tree health (HLB; direct injected into infected citrus trees, alone or in combinations with other antibiotics): marked improvement
penetration of citrus leaves or stems (citrus leaves): do not easily penetrate the waxy cuticle covering

phenoxymethylpenicillin (penicillin V)
phytotoxicity (Candidatus Liberibacter): very little phytotoxicity
effectiveness against the pathogenic bacteria (Candidatus Liberibacter): extremely effective
penetration of citrus leaves or stems (citrus leaves): do not easily penetrate the waxy cuticle covering

CC[C@H]1CCC[C@H](O[C@H]2CC[C@H](N(C)C)[C@@H](C)O2)[C@@H](C)C(=O)C2=C[C@@H]3[C@@H](C=C[C@@H]4C[C@@H](O[C@@H]5O[C@@H](C)[C@H](OC)[C@@H](OC)[C@H]5OC)C[C@@H]34)[C@@H]2CC(=O)O1 [Spinosyn A]
penetration of citrus leaves or stems (citrus leaves): known to readily penetrate citrus leaves

[H]/N=C(/N)N[C@H]1[C@H](O)[C@@H](O)[C@H](O[C@@H]2O[C@@H](C)[C@](O)(C=O)[C@H]2O[C@@H]2O[C@@H](CO)[C@H](O)[C@@H](O)[C@@H]2NC)[C@@H](N/C(N)=N\[H])[C@@H]1O [streptomycin sulfate]
bactericidal or bacteriostatic action [2]: bactericidal
effect on HLB infected trees (HLB): only marginally improved the health of trees

COC(=O)[C@@H]1N2C(=O)[C@@H](NC(=O)Cc3ccccc3)[C@H]2SC1(C)C [product compound 1, Methyl(2S,5R,6R)-3,3-dimethyl-7-oxo-6-(2-phenylacetamido)-4-thia-1-azabicyclo[3.2.0]heptane-2-carboxylate]
hydrolysis of the ester into the active antibiotic by citrus tissue [1]: not being successfully metabolized to the active antibiotic
penetration of waxy cuticle layer and epidermis to access the phloem [1]: affectively penetrate through the waxy cuticle layer and through the epidermis to access the phloem

CC(C)(C)C(=O)OCOC(=O)[C@@H]1N2C(=O)[C@@H](NC(=O)Cc3ccccc3)[C@H]2SC1(C)C [product compound 7, (Pivaloyloxy)methyl (2S,5R,6R)-3,3-dimethyl-7-oxo-6-(2-phenylacetamido)-4-thia-1-azabicyclo[3.2.0]heptane-2-carboxylate]
hydrolysis of the ester into the active antibiotic by citrus tissue [1]: hydrolyzed into the active antibiotic
penetration of waxy cuticle layer and epidermis to access the phloem [1]: affectively penetrate through the waxy cuticle layer and through the epidermis to access the phloem
penicillin G/V or metabolite peaks detected in reservoir water [1]: base peaks in the mass spectrum corresponded to the active antibiotics
